# Reference: patent US20240279220A1, “INDOLE COMPOUNDS AND METHODS OF USE” (Genzyme Corporation, priority 2021, published 2024)
# Tested on: NBD1/3D
# Experiment: Aggregation analysis using differential static light scattering (DSLS), NBD1 thermal stability
# Format: binding, Human
# Conditions: ΔTagg versus DMSO control; compound at 100 μM
# Method in brief: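 Thermal stabilisation reported as ΔTagg, i.e. aggregation temperature relative to averaged DMSO wells. Tagg came from the inflection of differential static light scattering imaged 25–70 °C while NBD1 (0.2 mg/ml, Tris pH 7.6 buffer containing ATP, MgCl2, DTT, glycerol) was ramped 1 °C/min.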
row,SMILES,DSLS NBD1/3D Human Stability delta-T (° C.) @ 100 (μM)
1,"Cc1c(Oc2ccc(F)c(-c3nnc(Cc4cccc(CCC(=O)O)c4)[nH]3)c2)c(F)cc2[nH]ccc12 [Example 238, 3-(3-((5-(2-Fluoro-5-((6-fluoro-4-methyl-1H-indol-5-yl)oxy)phenyl)-4H-1,2,4-triazol-3-yl)methyl)phenyl)propanoic acid]",B (B: 5-10° C.)
2,"O=C(O)CCc1cccc(Cc2nnc(-c3cc(Oc4c(F)cc5[nH]ccc5c4Cl)ccc3F)[nH]2)c1 [Example 239, 3-(3-((5-(5-((4-chloro-6-fluoro-1H-indol-5-yl)oxy)-2-fluorophenyl)-4H-1,2,4-triazol-3-yl)methyl)phenyl) propanoic acid]",C (C: ≤5° C.)
3,"O=C(O)CCc1cccc(Cc2nnc(-c3cc(Oc4c(F)cc5[nH]ccc5c4F)ccc3F)[nH]2)c1 [Example 240, 3-(3-((5-(5-((4,6-difluoro-1H-indol-5-yl)oxy)-2-fluorophenyl)-4H-1,2,4-triazol-3-yl)methyl)phenyl) propanoic acid]",B (B: 5-10° C.)
4,"Cc1c(Oc2ccc(F)c(-c3nc(Cc4cccc(CCC(=O)O)c4)n(C)n3)c2)c(F)cc2[nH]ccc12 [Example 241, 3-(3-((3-(2-Fluoro-5-((6-fluoro-4-methyl-1H-indol-5-yl)oxy)phenyl)-1-methyl-1H-1,2,4-triazol-5-yl)methyl)phenyl)propanoic acid]",B (B: 5-10° C.)
5,"Cc1c(Oc2ccc(F)c(-c3nc(Cc4cccc(CCC(=O)O)c4)nn3C)c2)c(F)cc2[nH]ccc12 [Example 242, 3-(3-((5-(2-Fluoro-5-((6-fluoro-4-methyl-1H-indol-5-yl)oxy)phenyl)-1-methyl-1H-1,2,4-triazol-3-yl)methyl)phenyl)propanoic acid]",B (B: 5-10° C.)
6,"Cc1c(Oc2ccc(F)c(-c3nnc(Cc4cccc5c4CC(C(=O)O)C5)[nH]3)c2)c(F)cc2[nH]ccc12 (stereo not shown) [Example 244, 4-((5-(2-Fluoro-5-((6-fluoro-4-methyl-1H-indol-5-yl)oxy)phenyl)-4H-1,2,4-triazol-3-yl)methyl)-2,3-dihydro-1H-indene-2-carboxylic acid]",C (C: ≤5° C.)
7,"Cc1c(Oc2ccc(F)c(-c3nnc(Cc4ccc5c(c4)CC(C(=O)O)C5)[nH]3)c2)c(F)cc2[nH]ccc12 (stereo not shown) [Example 245, 5-((5-(2-Fluoro-5-((6-fluoro-4-methyl-1H-indol-5-yl)oxy)phenyl)-4H-1,2,4-triazol-3-yl)methyl)-2,3-dihydro-1H-indene-2-carboxylic acid]",C (C: ≤5° C.)
8,"Cc1c(Oc2ccc(F)c(-c3nnc(Cc4ccc5[nH]c(C(=O)O)cc5c4)[nH]3)c2)c(F)cc2[nH]ccc12 [Example 246, 5-((5-(2-fluoro-5-((6-fluoro-4-methyl-1H-indol-5-yl)oxy)phenyl)-4H-1,2,4-triazol-3-yl)methyl)-1H-indole-2-carboxylic acid]",B (B: 5-10° C.)
9,"Cc1c(Oc2ccc(F)c(-c3nnc(Cc4cccc(C5CC(C(=O)O)C5)c4)[nH]3)c2)c(F)cc2[nH]ccc12 (stereo not shown) [Example 247, 3-(3-((5-(2-Fluoro-5-((6-fluoro-4-methyl-1H-indol-5-yl)oxy)phenyl)-4H-1,2,4-triazol-3-yl)methyl)phenyl)cyclobutane-1-carboxylic acid]",B (B: 5-10° C.)
10,"Cc1c(Oc2ccc(F)c(-c3nnc(Cc4cccc(C5(F)CC(C(=O)O)C5)c4)[nH]3)c2)c(F)cc2[nH]ccc12 (stereo not shown) [Example 248, 3-Fluoro-3-(3-((5-(2-fluoro-5-((6-fluoro-4-methyl-1H-indol-5-yl)oxy)phenyl)-4H-1,2,4-triazol-3-yl)methyl)phenyl)cyclobutane-1-carboxylic acid]",C (C: ≤5° C.)
11,"Cc1c(Oc2ccc(F)c(-c3nnc(Cc4cccc(N5CC(C(=O)O)C5)c4)[nH]3)c2)c(F)cc2[nH]ccc12 [Example 249, 1-(3-((5-(2-Fluoro-5-((6-fluoro-4-methyl-1H-indol-5-yl)oxy)phenyl)-4H-1,2,4-triazol-3-yl)methyl)phenyl)azetidine-3-carboxylic acid]",C (C: ≤5° C.)
12,"CC(O)(c1cccc(CCC(=O)O)c1)c1nnc(-c2cc(Oc3c(F)cc4[nH]ccc4c3F)ccc2F)[nH]1 (stereo not shown) [Example 250, 3-(3-(1-(5-(5-((4,6-Difluoro-1H-indol-5-yl)oxy)-2-fluorophenyl)-4H-1,2,4-triazol-3-yl)-1-hydroxyethyl)phenyl)propanoic acid]",B (B: 5-10° C.)
13,"Cc1c(Oc2ccc(F)c(-c3nnc(C(C)(O)c4cccc(CCC(=O)O)c4)[nH]3)c2)c(F)cc2[nH]ccc12 (stereo not shown) [Example 251, 3-(3-(1-(5-(2-fluoro-5-((6-fluoro-4-methyl-1H-indol-5-yl)oxy)phenyl)-4H-1,2,4-triazol-3-yl)-1-hydroxyethyl)phenyl)propanoic acid]",B (B: 5-10° C.)
14,"O=C(O)CCCCC#Cc1ccc(Cc2nnc(-c3cccc(Oc4ccc5[nH]ccc5c4)c3)[nH]2)cc1 [Example 253, 7-(4-((5-(3-((1H-Indol-5-yl)oxy)phenyl)-4H-1,2,4-triazol-3-yl)methyl)phenyl)hept-6-ynoic acid]",C (C: ≤5° C.)
15,"O=C(O)CCCCCCc1ccc(Cc2nnc(-c3cccc(Oc4ccc5[nH]ccc5c4)c3)[nH]2)cc1 [Example 254, 7-(4-((5-(3-((1H-Indol-5-yl)oxy)phenyl)-4H-1,2,4-triazol-3-yl)methyl)phenyl)heptanoic acid]",C (C: ≤5° C.)
16,"O=C(O)CCCCCc1cccc(Cc2nnc(-c3cccc(Oc4ccc5[nH]ccc5c4)c3)[nH]2)c1 [Example 255, 6-(3-((5-(3-((1H-indol-5-yl)oxy)phenyl)-4H-1,2,4-triazol-3-yl)methyl)phenyl)hexanoic acid]",C (C: ≤5° C.)
17,"O=C(O)CCCCCCc1cccc(Cc2nnc(-c3cccc(Oc4ccc5[nH]ccc5c4)c3)[nH]2)c1 [Example 256, 7-(3-((5-(3-((1H-indol-5-yl)oxy)phenyl)-4H-1,2,4-triazol-3-yl)methyl)phenyl)heptanoic acid]",C (C: ≤5° C.)
18,"O=C(O)CCCCc1cccc(Cc2nnc(-c3cccc(Oc4cc5cc[nH]c5cn4)c3)[nH]2)c1 [Example 257, 5-(3-((5-(3-((1H-pyrrolo[2,3-c]pyridin-5-yl)oxy)phenyl)-4H-1,2,4-triazol-3-yl)methyl)phenyl)pentanoic acid]",C (C: ≤5° C.)
19,"O=C(O)CCCCc1cccc(Cc2nnc(-c3cccc(Oc4ccc5[nH]ccc5c4)c3)[nH]2)c1 [Example 258, 5-(3-((5-(3-((1H-indol-5-yl)oxy)phenyl)-4H-1,2,4-triazol-3-yl)methyl)phenyl)pentanoic acid]",C (C: ≤5° C.)
20,"O=C(O)CCCc1cccc(Cc2nnc(-c3cccc(Oc4ccc5[nH]ccc5c4)c3)[nH]2)c1 [Example 259, 4-(3-((5-(3-((1H-Indol-5-yl)oxy)phenyl)-4H-1,2,4-triazol-3-yl)methyl)phenyl)butanoic acid]",B (B: 5-10° C.)
21,"c1cc(CCCCc2nnn[nH]2)cc(Cc2nnc(-c3cccc(Oc4ccc5[nH]ccc5c4)c3)[nH]2)c1 [Example 260, 5-(3-(5-(3-(4-(1H-Tetrazol-5-yl)butyl)benzyl)-4H-1,2,4-triazol-3-yl)phenoxy)-1H-indole]",C (C: ≤5° C.)
22,"O=C(O)CSc1cccc(Cc2nnc(-c3cccc(Oc4c(F)cc5[nH]ccc5c4F)c3)[nH]2)c1 [Example 261, 2-((3-((5-(3-((4,6-Difluoro-1H-indol-5-yl)oxy)phenyl)-4H-1,2,4-triazol-3-yl)methyl)phenyl)thio)acetic acid]",C (C: ≤5° C.)
23,"CC(=O)NCc1c(Oc2cccc(-c3ncc(C(O)c4cccc(CCC(=O)O)c4)[nH]3)c2)ccc2[nH]ccc12 (stereo not shown) [Example 262, 3-(3-((2-(3-((4-(Acetamidomethyl)-1H-indol-5-yl)oxy)phenyl)-1H-imidazol-5-yl)(hydroxy)methyl)phenyl)propanoic acid]",A (A: T ≥ 10° C.)
24,"CC(C)(C)NCc1c(Oc2cccc(-c3ncc(C(O)c4cccc(CCC(=O)O)c4)[nH]3)c2)ccc2[nH]ccc12 (stereo not shown) [Example 263, 3-(3-((2-(3-((4-((tert-Butylamino)methyl)-1H-indol-5-yl)oxy)phenyl)-1H-imidazol-5-yl)(hydroxy)methyl)phenyl)propanoic acid]",A (A: T ≥ 10° C.)
25,"COC(=O)CCc1cccc(C(C)(O)c2cnc(-c3cccc(Oc4ccc5[nH]ccc5c4CNC(C)=O)c3)[nH]2)c1 (stereo not shown) [Example 264, Methyl 3-(3-(1-(2-(3-((4-(acetamidomethyl)-1H-indol-5-yl)oxy)phenyl)-1H-imidazol-5-yl)-1-hydroxyethyl)phenyl)propanoate]",A (A: T ≥ 10° C.)
26,"O=C(O)CCc1cccc(Cc2cnc(-c3cc(Oc4c(F)cc5[nH]ccc5c4CNCC(F)(F)F)ccc3F)[nH]2)c1 [Example 265, 3-(3-((2-(2-Fluoro-5-((6-fluoro-4-(((2,2,2-trifluoroethyl)amino)methyl)-1H-indol-5-yl)oxy)phenyl)-1H-imidazol-5-yl)methyl)phenyl)propanoic acid]",B (B: 5-10° C.)
27,"O=C(O)CCc1cccc(C(O)c2cnc(-c3cccc(Oc4c(F)cc5[nH]ccc5c4-c4ccn[nH]4)c3)[nH]2)c1 (stereo not shown) [Example 267, 3-(3-((2-(3-((6-Fluoro-4-(1H-pyrazol-5-yl)-1H-indol-5-yl)oxy)phenyl)-1H-imidazol-5-yl)(hydroxy)methyl)phenyl)propanoic acid]",B (B: 5-10° C.)
28,"OCCCc1cccc(Cc2cnc(-c3cc(Oc4c(F)cc5[nH]ccc5c4F)ccc3F)[nH]2)c1F [Example 268, 3-(3-((2-(5-((4,6-Difluoro-1H-indol-5-yl)oxy)-2-fluorophenyl)-1H-imidazol-5-yl)methyl)-2-fluorophenyl)propan-1-ol]",C (C: ≤5° C.)
